According to patent US20030049712A1, “Method of detecting protease activity in a cell” (priority 2001, published 2003):

Tested on: caspase-3
Assay: Caspase3 assay using an NES-protease cleavage-NLS fusion protein (EYFP translocation)
Type: cell-based
Conditions: 3T3 cells transiently transfected with pCaspase3-sensor Vector; staurosporin 700 nM; detected 4 hours post induction; untreated cells: EYFP in the cytoplasm
From the text: A construct was generated that includes a nucleotide sequence encoding a fusion protein including, in order from amino to carboxyl terminus, an NES of MAP-kinase-kinase (NLVDLQKKLEELELDEQQ; SEQ ID NO: 23); a recognition site for caspase-3 (DEVD; SEQ ID NO: 22) bordered by a stretch of amino acids found in the cleavage site of the endogenous caspase-3 substrate poly (ADP-ribose) polymerase (PARP; Nicholson et al. (1995) Nature 376:37-43; and Tewari et al. (1995) Cell 81:801-809), such that the cleavage recognition site has the sequence KRKGDEVDGVDF (SEQ ID NO: 24); an enhanced yellow fluorescent protein (EYFP); and a three tandem repeat of the NLS from simian virus large T antigen. In this construct, the NES is dominant over the NLS.
The construct was transfected into mammalian cells. Specifically, 3T3 cells were grown on coverslips, transiently transfected with the pCaspase3-sensor Vector which is encodes the above described fusion protein and is further illustrated in Clontechniques (April, 2002), and grown for 24 hours. Apoptosis was induced using staurosporin (700 nM) and caspase-3 activity was detected 4 hours post induction. Cells were fixed with 3% paraformaldehyde and photomicrographs were taken using a Zeiss microscope.

## CN[C@@H]1C[C@H]2O[C@@](C)([C@@H]1OC)n1c3ccccc3c3c4c(c5c6ccccc6n2c5c31)C(=O)NC4 [staurosporin]
  caspase-3 activity read out as subcellular location of EYFP: the EYFP was detected in the nucleus
